Results published in patent publication US10406120B2, “Methods and compositions for treating kidney disorders” (Golden Biotechnology Corporation, priority 2013, dated 2019).

Legend:
TGF-β1 = experiment: AcP-IgAN model: renal TGF-β1 mRNA and protein; format: in vivo, B cell-deficient mice; settings: AcP-IgAN mice
Description: (§1) B cell-deficient mice (B6.129S2-Igh-6tm1Cgn/J) were obtained from the Academia Sinica (Professor John T. Kung, Institute of Molecular Biology), and maintained at the animal center of the National Defense Medical Center, Taipei, Taiwan. AcP-IgAN was induced in the mice by daily injection of purified IgA anti-phosphorylcholine antibodies and pneumococcal C-polysaccharide (PnC) as described previously (Chao, et al., Kidney Int. 70:283-297; 2006). All animal experiments were performed with the approval of the Institutional Animal Care and Use Committee of The National Defense Medical Center, Taiwan, and were consistent with the NIH Guide for the Care and Use of Laboratory Animals.
For IHC, formalin fixed and paraffin embedded tissue sections or frozen sections were incubated with against IL-6 (R&D Systems, MN), MCP-1 (Santa Cruz, Calif.), F4/80 (monocytes/macrophages; Serotec, N.C.), collagen IV (Southern Biotech, AL), TGF-β1 (Santa Cruz), phopsho-NFκB p65 (Cell Signaling, MA), CD3 (pan-T cell; Serotec), CD4 (T helper cell; BioLegend, CA), CD8 (cytotoxic T cell), CD11b (macrophages/neutrophils), or CD11c (dendritic cells) (BD Biosciences, CA) antibodies. The FITC-conjugated, Alexa Fluor 488-conjugated (Invitrogen, CA) or horseradish peroxidase (HRP) conjugated secondary antibodies (DAKO, Denmark) were then applied to the sections. Hematoxylin or 4′,6-diamidino-2-phenylindole (DAKO) was used in the counter staining for nuclei.
Total cortical kidney RNA was extracted with TriZOL reagents (Invitrogen) from cortical tissue of the kidney. For first-strand cDNA synthesis, 1.5 μg of total RNA was used in a single-round reverse transcriptase reaction. The reaction mixture consisted of 0.9 μl of Oligo (dT) 12 to 18 primer, 1.0 mM deoxyribonucleotide triphosphate (dNTP), 1 μl first strand buffer, 0.4 mM dithiothreitol, 80 U of RNaseout recombinant ribonuclease inhibitor, and 300 U of superscript II RNase H (Invitrogen). Real-time PCR was performed on an ABI Prism 7700 Sequence Detection System (Applied Biosystems, CA). […]

NLRP3 = experiment: AcP-IgAN model: renal NLRP3 mRNA and protein; format: in vivo, B cell-deficient mice; settings: AcP-IgAN mice
Description: as §1
Total cortical kidney RNA was extracted with TriZOL reagents (Invitrogen) from cortical tissue of the kidney. For first-strand cDNA synthesis, 1.5 μg of total RNA was used in a single-round reverse transcriptase reaction. The reaction mixture consisted of 0.9 μl of Oligo (dT) 12 to 18 primer, 1.0 mM deoxyribonucleotide triphosphate (dNTP), 1 μl first strand buffer, 0.4 mM dithiothreitol, 80 U of RNaseout recombinant ribonuclease inhibitor, and 300 U of superscript II RNase H (Invitrogen). Real-time PCR was performed on an ABI Prism 7700 Sequence Detection System (Applied Biosystems, CA). All of the probes and primers were Assays-on-Demand Gene expression products (Applied Biosystems). Real-time PCR reactions were using 10 μl of cDNA, 12.5 μl of TaqMan Universal PCR Master Mix (Applied Biosystems), and 1.25 μl of the specific probe/primer mixed in a total volume of 25 μl. The thermal cycler conditions were as follows: 2 min at 50° C., 10 min at 95° C., 40 cycles of denaturation (15 s at 95° C.), and combined annealing/extension (1 min at 60° C.).
Each protein sample was run on a 10% SDS-PAGE gel. […] The membrane-bound antibody detected was incubated with chemiluminescent reagent plus (PerkinElmer Life Sciences, MA) and captured on x-ray film.

[1] = day 28, vs control AcP-IgAN mice

`COC1=C(OC)[C@H](O)[C@H](C/C=C(\C)CC/C=C(\C)CCC=C(C)C)[C@@H](C)C1=O` [Compound 1, Antroquinonol] was tested, and the “renal mRNA levels of TGF-β1” value (TGF-β1; day 3) was “basal mRNA levels”, the “TGF-beta protein levels in kidney (IHC)” value (TGF-β1; [1]) was “substantially inhibited” and the “renal mRNA expression of TGF-β1” value (TGF-β1; [1]) was “greatly inhibited”. The “protein levels of NLRP3 in the kidney (increase)” value (NLRP3; both day 3 and day 28, vs AcP-IgAN mice) was “significantly inhibited”, the “renal NLRP3 mRNA expression levels” value (NLRP3; day 3) was “no effects” and the “renal mRNA levels of NLRP3” value (NLRP3; [1]) was “substantially reduced”.
